# Test results published in patent publication US6642365B1, “Anti-(retro)viral conjugates of saccharides and acetamidino or guanidino compounds” (Yeda Research and Development Co. Ltd., priority 2001, dated 2003).
# Entries after “also recorded” stand apart in the source; their conditions may differ.
# Assays:
# HIV Rev-RRE interaction = conditions: at 100 μM; cited from earlier work
# Tat-TAR complex = conditions: cited from earlier work
# HIV-1 NL4-3 [1] = assay: Virus-binding assay, p24 antigen bound to MT-4 cells; type: cell-based
# Protocol: MT4 cells (5×10^5) were incubated with supernatant containing 1×10^5 pg of p24 antigen of wild type HIV-1 in the presence of different concentrations of the test compound. One hour after infection, cells were washed 3 times with PBS and p24 antigen bound to the cells was determined by a commercial ELISA test (Coulter, Spain).
# HIV-1 NL4-3 [2] = assay: Anti-HIV assay, MTT, MT-4 cells; type: cell-based
# Protocol: The HIV-1 strains NL4-3 and Ba-L and the CD4^+lymphocytic cell lines SUP-T1, MT-4 and MT-2 and P4-CCR5 MAGI cells were obtained from the MRC AIDS reagent program or the NIH, AIDS Research and Reference Reagent Program.
# (§1) The cells were infected by incubation with different titers of the HIV-1 strains for 2 hrs at 37° C. in the presence or absence of the AAC of the invention. Then the cells were washed from the virus by centrifugation at 400 g and the supernatants were discarded. The cells were resuspended in culture medium, supplemented with different concentrations of the test compounds. The cells were allowed to proliferate for 5 days, the number of viable cells was quantified by a tetrazolium-based colorimetric method (CellTiter 96® AQueous One solution Cell Proliferation Assay, Promega). Anti-HIV activity in P4-CCR5 MAGI cells was done as follows: cells (1×10^5/ml) were infected with 10 ng/ml of p24 antigen of HIV-1 Ba-L in the presence of varying concentrations of the test compound. 24 hours post infection, cells were washed twice with PBS and resuspended in the medium containing the appropriate drug concentration. Five days after infection the cells were washed with PBS and evaluated for β-galactosidase activity.
# [3] = system: HIV-1 NL4-3 AMD3100-resistant; type: cell-based
# CXCR4 [4] = biological target: T1, CXCR4 (Homo sapiens, UniProt P61073); assay: Inhibition of anti-CXCR4 mAb (12G5) binding, flow cytometry, SUP-T1 cells; parameters: endogenous in cells
# T1 sequence (P61073 whole entry): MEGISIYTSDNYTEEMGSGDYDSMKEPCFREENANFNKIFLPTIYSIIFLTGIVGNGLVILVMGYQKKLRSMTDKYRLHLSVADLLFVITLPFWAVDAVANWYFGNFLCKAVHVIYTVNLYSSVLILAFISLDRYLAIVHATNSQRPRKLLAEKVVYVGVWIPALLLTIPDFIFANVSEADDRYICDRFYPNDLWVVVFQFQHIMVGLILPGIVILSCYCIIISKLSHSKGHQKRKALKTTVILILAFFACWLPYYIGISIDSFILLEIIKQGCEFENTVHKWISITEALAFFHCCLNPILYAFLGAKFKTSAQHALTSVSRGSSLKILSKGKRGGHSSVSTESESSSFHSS
# Protocol: (§2) Measurement of chemokine receptors CXCR4, CCR5 and the CD4 receptor on phytohemagglutinin (PHA)-activated PBMC was performed by flow cytometry analysis. Briefly, 0.5×10^6 cells were washed in ice-cold phosphate-buffered saline (PBS) and incubated for 30 minutes at 4÷C. with fluorescent labelled mAb 12G5 and 2D7 and Leu3a (Becton Dickinson, San Jose, Calif.) or with isotype control mAbs in the presence or absence of the test compound. Then, the cells were washed with ice-cold PBS and were fixed in PBS containing 1% formaldehyde. For each sample, 10,000 events were analysed in a FACScalibur™ system (Becton Dickinson). Data were acquired and analysed with CellQuest™ software (Becton Dickinson).
# TAR RNA [5] = assay: Gel-shift binding to TAR RNA; parameters: species or system HIV-1; conditions: up to 50 μM
# Protocol: The model Tat peptide (R52: […]) was prepared by the Weizmann Institute Chemical Services and was purified by reverse phase HPLC (C-18) (Lapidot et al., 1995). […] The RNA was transcriptionally labeled with α-^32P UTP, purified on a 12% polyacrylamide/7M urea gel (19:1 acrylamide:bis-acrylamide) and was eluted from the gel by 0.5M ammonium acetate, 10 mM magnesium acetate, 1 mM EDTA and 0.1% SDS. The sample was subjected to phenol extraction and the RNA was precipitated from 70% ethanol. Purified RNA was dissolved in diethyl pyrocarbonate-treated water (DEPC water), its concentration was determined by UV absorption at 260 nm and the specific radioactivity was determined by scintillation counting on a LS 1701 “Bruker” counter.
# To study the affinity of the test compounds to TAR, gel-shift and gel-shift inhibition experiments were performed. The binding reaction mixtures (20 μl) contained ^32P-labeled TAR (18-44) RNA oligonucleotide (3-6 nM) and Tat R52 peptide (35-75 nM) in a binding buffer (10 mM Tris-HCl pH 7.5, 70 mM NaCl, 0.2 mM EDTA and 5% glycerol). The reaction mixtures were incubated for 10 minutes on ice and resolved by electrophoresis on a 10% non-denaturing polyacrylamide gel (40:1 acrylamide:bis-acrylamide) at 200V, for 3 h at 4° C. Gels were dried and visualized by autoradiography. Quantitations were obtained by optical densitometry of films. Alternatively, results were visualized by exposing the wet gels to Fuji phosphoimager plates, which were read on a “Storm 820” (Molecular Dynamics) phosphoimager. […]
# Binding of aminoglycoside-arginine conjugates (AAC) to TAR RNA was measured by adding varying concentrations of each conjugate to reaction mixtures (20 μl) which contained 12 nM ^32P-labeled TAR RNA. The reactions were analyzed as described above.
# TAR RNA [6] = assay: RNase A footprinting of TAR RNA; type: binding, HIV-1
# Protocol: In a typical experiment 10 μl of 5 mM cacodylate buffer pH 6.5, containing 25 mM KCl and 50-100 ng 5′ ^32P-labeled TAR RNA (approximately 0.5-1 μM) were incubated with 200 pM RNase A (Sigma) at room temperature for 10 minutes in the presence of Tat R52 and the conjugates of the invention at various concentrations. In the competition experiments, the mixture was supplemented with 0.5 μg yeast tRNA (Sigma). After the incubation, 10 μl of formamide/bromphenol blue loading buffer was added to the samples. The samples were heated to 80° C. for 2 min and were resolved by electrophoresis on 40 cm×0.8 mm 20% polyacrylamide denaturing gel (7M urea) for 3 hours at 55° C. The results were visualized by a phosphoimager as described above and quantitated using ImageQuant software.
# TAR RNA and RNase A concentrations were established by co-titration. To produce a “single-hit” kinetics conditions, 1 μM TAR versus 200 pM RNase A were selected. Tat R52 and AAC concentrations were determined by titration. […] RNase A cleaved TAR RNA in an uneven manner (FIG. 4A., lane 2). The most susceptible regions for cleavage were the single-stranded loop, nucleotides U31-G34 as well as C24 and U25 of the bulge. Strong cleavage was also observed at G21-G41 and A20-U42 pairs (lower stem). Binding of R52 (2-4 μM) caused a weakening of the bands in the upper stem region, (G26-C39, A27-C38, as well as U40) (FIG. 4A., lanes 3, 4). At 4 μM R52, the cleavage at G34 (loop) was enhanced, as well as a certain enhancement of bands A20, G21, U23 and U25 was observed. Remarkably, the band corresponding to the R52-TAR complex still was observed on the gels even after electrophoresis under strongly denaturing conditions. In the presence of R4K (10-20 μM), the upper stem (G26-C29), the lower stem and the bulge (G21-U23, partially C24 and U25) were protected as well as C38, C39 and U40. Cleavage at C19 and A20 of the lower stem and C30, G33 and G34 of the loop was enhanced by 10 μM R4K, whereas with 20 μM R4K the protection of C30, G34 and A20-G21 was observed (FIG. 4A., lanes 5, 6). […] Cleavages at C19-A20 in the lower stem as well as at G30 and G34 in the loop were observed (FIG. 4A., lanes 7, 8). In the presence of GB4K (20 μM) no significant protection was observed.
# [7] = system: equine infectious anemia virus (EIAV); assay: Antiviral activity in EIAV-infected ED fibroblasts; type: cell-based; conditions: 100-250 μM
# Protocol: Both equine dermal fibroblasts (ED) and Equine Infectious Anemia Virus (EIAV), Wyoming isolate (Malmquist et al., 1973) were gifts from Profs. A. Yaniv and A. Gazit, from the Sackler Medical School of the Tel-Aviv University, Israel. ED cells were plated on plastic 6-well tissue culture plates (Nunclone) at density of […] per well in 2 ml of DMEM/10% FCS (fetal calf serum). The medium was removed after 12-20 hours and the cells were inoculated for 2 hours with 0.5 ml DMEM/10% FCS containing 5×10^6 pfu (plaque forming units) of EIAV and 10 μg/ml of polybrene (hexadimetrine bromide, Sigma) (Carpenter and Chesebro, 1989). Following the incubation, another 2.5 ml of DMEM/10% FCS was added to each well. […] Every […], 1.2 ml samples of the medium were collected and replaced with same amount of medium, containing radioactive uridine and the tested. The samples were clarified from cell debris by spinning at 12000 rpm for 5 minutes on the Eppendorf centrifuge. Viral particles from the clarified supernatants were collected by ultracentrifugation at 75000 rpm, 4° C. on the Beckman TL 100 centrifuge using TLA 100.2 rotor (Cheevers et al., 1977). The supernatants were carefully discarded and the pellet was resuspended in 200 μl of 1% SDS/5% Tritone X-100, mixed with 1 ml Ultima Gold scintillation liquid (Packard) and counted on LS 1701 Bruker scintillation counter. Typical duration of the experiment was 15 days; EIAV growth curves in the presence of various concentrations of the conjugates in the medium were obtained. Development of the cytopathic effect (cpe) in the infected ED cells was monitored by light microscopy.
# Equine infectious anemia virus (EIAV) of Wyoming strain is adapted to grow in equine dermal fibroblasts (ED), without damaging them with a titer of 1 μfu per cell (Malmquist virus). […] In the absence of inhibitors, EIAV proliferated in the ED cells reaching a plato 9-12 days after infection (FIG. 8). […] Development of cpe started 10-12 days after infection, reaching a maximum on days 15-17, followed by rapid cell death and exfoliation from the plastic bottom of the well.
# HIV-1 IIIB = assay: Anti-HIV assay, syncytium formation and tetrazolium colorimetric assay; type: cell-based; conditions: range over IIIb, 2D, AZT resistant, UC781 resistant and clade C HIV-1
# Protocol: (§3) T-tropic HIV-1 laboratory strains IIIb, 2D as well as AZT-resistant and UC781-resistant strains were utilized in this study, along with clinical isolate (clade C). HIV-1 clinical isolate, resistant to AZT is a generous gift from Dr. Mark A. Wainberg, McGill AIDS Center, McGill University, Montreal, Canada.
# (§4) MT-2 or MT-4 cells were cultured in RPMI 1640 supplemented with 10% fetal calf serum (FCS), 0.2 mM glutamine and penicilline/streptomycin/nistatin mixture. The cells were propagated in 96-well tissue culture plates at the density of 5×10^4 cells per well. Peripheral mononuclear blood cells (PMBC) were separated from whole blood samples by centrifugation in Ficoll gradient for 10 min at 400 g. PMBC were cultured in the same medium in 24-well tissue culture plates at the density of about 10^6 cells per well.
# [8] = system: HIV-1 clinical isolate (clade C); assay: as above; type: cell-based
# Protocol: as §3, §4
# HIV-1 2D = type: cell-based
# Protocol: as §3, §4
# [9] = system: MT-2 cells as well as PMBC lines ETH and IS; conditions: ratio CC50/EC50
# Protocol: as §1
# CXCR4 [10] = biological target: T1, CXCR4; assay: Inhibition of anti-CXCR4 mAb (12G5) binding, flow cytometry, PHA-activated PBMC; parameters: endogenous in cells
# Protocol: as §2
compound,measurement,setting,value
gentamicin,inhibition of Rev-RRE interaction,HIV Rev-RRE interaction,do not display any inhibition
native Tat: HIV trans-activator of transcription protein,Kd,"Tat-TAR complex; comparison value, read-out: Kd of the native Tat-TAR complex",6 to 12 nM
"NC[C@@H]1O[C@H](O[C@H]2[C@@H](O)[C@H](O[C@@H]3[C@@H](O)[C@H](N)C[C@H](N)[C@H]3O[C@H]3O[C@H](CN)[C@@H](O)[C@H](O)[C@H]3N)O[C@@H]2CO)[C@H](N)[C@@H](O)[C@@H]1O [Neomycin B, reference compound]",concentration range of inhibitory effect on Tat binding to TAR,Tat-TAR complex; in vitro,1 to 100 µM
"CO[C@@H]1O[C@H](CC(N)=O)C(O)[C@H](O)[C@@H]1O (stereo partly drawn) [compound 8, Methyl 6-deoxy-α-D-mannoheptopyranuronic acid amide]",melting point,,177 °C
Dextran sulfate [reference compound],binding of HIV-1 NL4-3 to MT-4 cells,"HIV-1 NL4-3 [1]; 1 hour at 37° C., dose dependent",active
SDF-1α,EC50,HIV-1 NL4-3 [2],40 nM
same,EC50,"[3]; MTT assay, read-out: EC50 HIV-1 AMD 3100res",> 1000 nM
same,cross-resistance of NL4-3 AMD3100-resistant virus,[3]; relative to NL4-3,> 25 fold
same,binding of HIV-1 to MT-4 cells,HIV-1 NL4-3 [1]; 0.5 μg/ml,did not inhibit the binding
same,IC50,CXCR4 [4],13 nM
"N=C(N)NCCCC(=O)NC[C@H]1O[C@H](O[C@H]2[C@H](O)[C@@H](O[C@H]3O[C@H](CO)[C@@H](O)[C@H](NC(=O)CCCNC(=N)N)[C@H]3O)[C@H](NC(=O)CCCNC(=N)N)C[C@@H]2NC(=O)CCCNC(=N)N)[C@H](O)[C@@H](O)[C@@H]1O [GB4K, Tetra-γ-(N-guanidino)butyramido-kanamycin A conjugate]",binding to TAR RNA in gel-shift experiments,TAR RNA [5],did not exhibit binding
same,binding to TAR RNA in protection experiments,TAR RNA [6]; at 40 μM,did not exhibit binding
same,"TAR RNA binding, overall assessment",TAR RNA [6]; footprinting studies,very weak TAR RNA binder
same,effect on the viral growth,[7],did not show any effect
Hexa/penta-argininamido-neomycin B conjugate [NeoR],EC50,HIV-1 IIIB,3000 to 4000 nM
same,inhibition of virus growth,"[8]; MT-2 cells infected in presence of 20 μM R3G or 10 μM NeoR, then 3 days without AAC",60%
same,EC50,[8]; average of two independent experiments in duplicates,3000 nM
same,EC50,HIV-1 2D,4000 nM
same,antiviral effect in the presence of AZT,HIV-1 2D,additive
same,TI50,[9],60-85
same,affinity for CXCR4,CXCR4 [4]; inhibition of 12G5 binding to SUP-T1 cells or PMBC,high affinity
same,binding of 12G5 mAb to PHA-activated PBMC,CXCR4 [10]; 5 μM,suppressed significantly more than in the presence of 5 μM R3G; also recorded: suppressed
same,IC50,CXCR4 [10]; read-out: IC50-12G5 PMBC,2400 nM
